{"source": "patent US6489098B1", "about": "“Means and methods for monitoring nucleoside reverse transcriptase inhibitor antiretroviral therapy and guiding therapeutic decisions in the treatment of HIV/AIDS” (ViroLogic, Inc., priority 1998, dated 2002)", "key": {"[1]": {"test_system": "HIV-1 RT mutant resistance test vector V75I+Q151M", "experiment": "Phenotypic susceptibility assay, site directed RTV V75I+Q151M", "type": "cell-based", "details": "RTV with V75I+Q151M", "procedure": "(§1) Resistance tests were carried out with resistance test vectors using two host cell types. Resistance test vector viral particles were produced by a first host cell (the resistance test vector host cell) that was prepared by transfecting a packaging host cell with the resistance test vector and the packaging expression vector. The resistance test vector viral particles were then used to infect a second host cell (the target host cell) in which the expression of the indicator gene is measured.\nThe resistance test vectors containing a functional luciferase gene cassette were constructed and host cells were transfected with the resistance test vector DNA. […] The IC50 values were determined by plotting percent drug inhibition vs. log 10 drug concentration.\n(§2) Host cells were seeded in 10-cm-diameter dishes and were transfected several days after plating with resistance test vector plasmid DNA and the envelope expression vector. […] HIV capsid protein (p24) levels in the harvested cell culture media were determined by an EIA method as described by the manufacturer (SIAC; Frederick, Md.). […] The inhibitory effect of the drug was determined using the following equation: […]"}, "[2]": {"test_system": "RTV clone 285-1 (T69SSA) versus revertant 285-1 (SSA69T)", "experiment": "Phenotypic susceptibility assay, patient 285 clone and T69SSA revertant", "type": "cell-based, HIV-1", "details": "T69SSA→SSA69T in a clone of a patient's virus"}, "[3]": {"test_system": "HIV with RT mutation at codon 50", "details": "mutation at codon 50, in vitro; cited from earlier work"}, "[4]": {"test_system": "HIV isolates of 13 ZDV-naive patients", "details": "13 ZDV-naive patients followed for 18 to 22 months on d4T; d4T maximum; ZDV five patients; ddI three subjects; cited from earlier work"}, "[5]": {"test_system": "HIV-1 RT mutant resistance test vector M41L-T69SSA-T215Y-L210W-RTV", "experiment": "Phenotypic susceptibility assay, site directed RTV M41L+T69SSA+L210W+T215Y", "type": "cell-based", "details": "L210W introduced with M41L+T69SSA+T215Y", "procedure": "as §1\n(§3) The resistance test vectors containing a functional luciferase gene cassette were constructed and host cells were transfected with the resistance test vector DNA. The resistant test vectors contained patient-derived reverse transcriptase and protease sequences that were either susceptible or resistant to the antiretroviral agents, such as nucleoside reverse transcriptase inhibitors, non-nucleoside reverse transcriptase inhibitors and protease inhibitors. The resistance test vector viral particles produced by transfecting the resistance test vector DNA into host cells, either in the presence or absence of protease inhibitors, were used to infect target host cells grown either in the absence of NRTI or NNRTI or In the presence of increasing concentrations of the drug. The amount of luciferase activIty produced in infected target host cells in the presence of drug was compared to the amount of luciferase produced in infected target host cells in the absence of drug. […] The IC50 values were determined by plotting percent drug inhibition vs. log 10 drug concentration.\nas §2"}, "[6]": {"test_system": "HIV with multiple ZDV resistance mutations", "details": "read-out: IC50 (high-level resistance); cited from earlier work"}, "[7]": {"test_system": "HIV-1 RT mutant resistance test vector M41L-A62V-T69SSA-T215Y-L210W-RTV", "experiment": "Phenotypic susceptibility assay, site directed RTV M41L+A62V+T69SSA+L210W+T215Y", "type": "cell-based", "details": "RTV with 41 + 62 + 69 + 210 + 215; 3 replicates", "procedure": "as §1, §3, §2"}, "[8]": {"test_system": "HIV with RT Leu74→Val mutation", "details": "cited from earlier work"}, "[9]": {"test_system": "HIV with RT Thr69→Asp mutation", "details": "cited from earlier work"}, "[10]": {"test_system": "HIV with M41L, L210W, T215Y plus M184V", "details": "cited from earlier work"}}, "note": "“And” between values parts separate entries of the source, which are not always exact repeats. Equal values may be shown once. “Also recorded” adds a separate entry of the source.", "data": [{"smiles": "Cc1cn([C@H]2C=C[C@@H](CO)O2)c(=O)[nH]c1=O", "note": "[d4T, stavudine]", "values": [{"measurement": "effect on susceptibility (words)", "setting": "[1]", "result": "decreased susceptibility to d4T; also recorded: reduced d4T and AZT susceptibility"}, {"measurement": "effect of reversion of the T69SSA mutation", "setting": "[2]", "result": "reduced d4T resistance"}, {"measurement": "fold reduction in sensitivity", "setting": "[3]", "result": 30, "unit": "fold"}, {"measurement": "fold decrease in sensitivity", "setting": "[4]", "result": "≤ 12", "unit": "fold"}]}, {"smiles": "Cc1cn([C@H]2C[C@H](N=[N+]=[N-])[C@@H](CO)O2)c(=O)[nH]c1=O", "note": "[AZT, zidovudine]", "values": [{"measurement": "effect on susceptibility (words)", "setting": "[5]", "result": "substantial decrease in susceptibility to AZT"}, {"measurement": "IC50", "setting": "[6]", "result": "> 1000", "unit": "nM"}]}, {"smiles": "Nc1ccn([C@H]2CC[C@@H](CO)O2)c(=O)n1", "note": "[ddC, zalcitabine]", "values": [{"measurement": "Average fold reduction in susceptibility", "setting": "[7]", "result": "2.1 fold and 2.10 fold"}, {"measurement": "fold reduction in sensitivity", "setting": "[8]", "result": "around ten-fold"}, {"measurement": "fold reduction in sensitivity", "setting": "[9]", "result": "five-fold"}]}, {"smiles": "Nc1nc(NC2CC2)c2ncn([C@H]3C=C[C@@H](CO)C3)c2n1", "note": "[ABC, abacavir]", "values": [{"measurement": "fold reduction in susceptibility", "setting": "[10]", "result": "eight fold"}]}]}
